Drawing on PubChem BioAssay AID256 (DTP/NCI, 2004), this text covers T/C for 20 compounds.

Values joined by “and” are separate entries in the source; they are usually repeats but may differ in a detail not shown here. Equal entries are not always repeated. Inconclusive results and toxic doses are left out.

The test has as its system CD2F1 mice, L1210 leukemia ip, survival T/C. Description: NCI In Vivo Anticancer Drug Screen. Data for tumor model L1210 Leukemia (intraperitoneal) in CD2F1 (CDF1) mice. Particulars: higher = longer survival. The method, boiled down: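 Mice carrying a transplanted tumor received test compound or vehicle alone. The value is the measurement in the treated group divided by that in the vehicle-treated control group.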

Setting [1] is: endpoint: mean survival time, dose: 100.0 mg/kg/injection, schedule: Q04DX003 (ip), vehicle: saline with Tween-80.
Setting [2] is: endpoint: mean survival time, dose: 200.0 mg/kg/injection, schedule: Q04DX003 (ip), vehicle: saline with Tween-80.
Setting [3] is: endpoint: mean survival time, dose: 400.0 mg/kg/injection, schedule: Q04DX003 (ip), vehicle: saline with Tween-80.
Where [4] appears, read: endpoint: mean survival time, dose: 100.0 mg/kg/injection, schedule: Q01DX009 (ip), vehicle: saline sonified.

Turning to `NC(=O)c1ncnc2c1ncn2C1OC(CO)C(O)C1O` (configuration not stated), the T/C (endpoint: mean survival time, dose: 12.5 mg/kg/injection, schedule: Q01DX005 (ip), vehicle: water) was 104 % of control and 102 % of control; the T/C (endpoint: mean survival time, dose: 25.0 mg/kg/injection, schedule: Q01DX005 (ip), vehicle: water) is 104 % of control and 97 % of control; the T/C (endpoint: mean survival time, dose: 50.0 mg/kg/injection, schedule: Q01DX005 (ip), vehicle: water) was 106 % of control and 96 % of control; the T/C (endpoint: mean survival time, dose: 100.0 mg/kg/injection, schedule: Q01DX005 (ip), vehicle: water) was 110 % of control and 100 % of control; the T/C (endpoint: mean survival time, dose: 200.0 mg/kg/injection, schedule: Q01DX005 (ip), vehicle: water) is 110 % of control and 96 % of control.
Take `COc1cccc2c1C(=O)c1c(OC)c(C)cc(OC)c1C2=O`: the T/C was 113 % of control (endpoint: mean survival time, dose: 12.5 mg/kg/injection, schedule: Q01DX009 (ip), vehicle: other); 110 % of control (endpoint: mean survival time, dose: 25.0 mg/kg/injection, schedule: Q01DX009 (ip), vehicle: other); 110 % of control (endpoint: mean survival time, dose: 50.0 mg/kg/injection, schedule: Q01DX009 (ip), vehicle: other); 110 % of control (endpoint: mean survival time, dose: 100.0 mg/kg/injection, schedule: Q01DX009 (ip), vehicle: other); 117 % of control (endpoint: mean survival time, dose: 200.0 mg/kg/injection, schedule: Q01DX009 (ip), vehicle: other).
`Nc1c(-c2ncc[nH]2)ncn1CC(O)C(O)C(O)CO` (configuration not stated): the T/C is 98 % of control (endpoint: mean survival time, dose: 12.5 mg/kg/injection, schedule: Q01DX005 (ip), vehicle: saline with Tween-80); 101 % of control (endpoint: mean survival time, dose: 25.0 mg/kg/injection, schedule: Q01DX005 (ip), vehicle: saline with Tween-80); 103 % of control (endpoint: mean survival time, dose: 50.0 mg/kg/injection, schedule: Q01DX005 (ip), vehicle: saline with Tween-80); 92 % of control (endpoint: mean survival time, dose: 100.0 mg/kg/injection, schedule: Q01DX005 (ip), vehicle: saline with Tween-80); 98 % of control (endpoint: mean survival time, dose: 200.0 mg/kg/injection, schedule: Q01DX005 (ip), vehicle: saline with Tween-80).
As to `O=C(c1ccccc1)C1CC2(c3ccccc3)C(=O)C1(c1ccccc1)c1c2c2ccccc2c2ccccc12` (configuration not stated), the T/C is, setting by setting: (endpoint: mean survival time, dose: 50.0 mg/kg/injection, schedule: Q01DX001 (ip), vehicle: saline with Tween-80) 90 % of control; (endpoint: mean survival time, dose: 100.0 mg/kg/injection, schedule: Q01DX001 (ip), vehicle: saline with Tween-80) 86 % of control and 94 % of control; (endpoint: mean survival time, dose: 400.0 mg/kg/injection, schedule: Q01DX001 (ip), vehicle: saline with Tween-80) 89 % of control.
Regarding `CCC(C)CC(=O)Nc1cccc(O)c1` (configuration not stated), the T/C runs as follows: under setting [1], 96 % of control; under setting [2], 96 % of control; under setting [3], 91 % of control.
On to `Oc1c(Br)cc(Br)cc1C=Nc1ccc(Br)cc1`, for which the T/C is, setting by setting: under setting [1], 110 % of control; under setting [2], 97 % of control; under setting [3], 95 % of control.
With `COC(=O)NC1C(C)OC(OC2C/C=C(/C)C3C=CC4C(OC5CC(OC6CCC(OC7CC(O)C(OC8CCC(O)C(C)O8)C(C)O7)C(C)O6)C(OC(C)=O)C(C)O5)C(C)CC(C)C4C3(C)/C(O)=C3/C(=O)OC4(CC(C=O)=CC(O)C4/C=C\2C)C3=O)CC1(C)[N+](=O)[O-]` (configuration not stated), the T/C (endpoint: median survival time, dose: 1.25 mg/kg/injection, schedule: Q01DX009 (ip), vehicle: water) was 106 % of control; the T/C (endpoint: median survival time, dose: 2.5 mg/kg/injection, schedule: Q01DX009 (ip), vehicle: water) is 106 % of control; the T/C (endpoint: median survival time, dose: 5.0 mg/kg/injection, schedule: Q01DX009 (ip), vehicle: water) was 113 % of control; the T/C (endpoint: median survival time, dose: 10.0 mg/kg/injection, schedule: Q01DX009 (ip), vehicle: water) was 121 % of control.
`Cc1cc([NH-])c([NH-])cc1C.[Cl][Pt+2][Cl]`: the T/C (endpoint: mean survival time, dose: 2.5 mg/kg/injection, schedule: Q01DX009 (ip), vehicle: saline with Tween-80) is 120 % of control and 123 % of control; the T/C (endpoint: mean survival time, dose: 10.0 mg/kg/injection, schedule: Q01DX009 (ip), vehicle: saline with Tween-80) was 150 % of control and 168 % of control; the T/C (endpoint: mean survival time, dose: 10.0 mg/kg/injection, schedule: Q04DX003 (ip), vehicle: water) is 121 % of control; the T/C (endpoint: mean survival time, dose: 16.0 mg/kg/injection, schedule: Q04DX003 (ip), vehicle: water) is 116 % of control; the T/C (endpoint: mean survival time, dose: 24.0 mg/kg/injection, schedule: Q04DX003 (ip), vehicle: water) is 112 % of control.
For `C1=CC23CC(c4ccccc42)C2c4ccccc4C23C=C1` (configuration not stated), the T/C is 101 % of control (endpoint: mean survival time, dose: 100.0 mg/kg/injection, schedule: Q01DX009 (ip), vehicle: saline with Tween-80); 93 % of control under setting [1]; 101 % of control (endpoint: mean survival time, dose: 200.0 mg/kg/injection, schedule: Q01DX009 (ip), vehicle: saline with Tween-80); 95 % of control under setting [2]; 95 % of control (endpoint: mean survival time, dose: 400.0 mg/kg/injection, schedule: Q01DX009 (ip), vehicle: saline with Tween-80); 93 % of control under setting [3].
As for `O=C(O)/C=C/c1ccc(Cl)cc1Cl`, the T/C is 95 % of control under setting [1], 95 % of control under setting [2] and 86 % of control under setting [3].
Consider `CC(C)(C)C1CC(=O)N(c2ccccc2)N1` (configuration not stated), for which the T/C is, setting by setting: under setting [1], 106 % of control; under setting [2], 98 % of control; under setting [3], 98 % of control.
Turning to `O=C(CC([Se]c1ccccc1)c1ccccc1)c1ccccc1` (configuration not stated), the T/C (endpoint: mean survival time, dose: 50.0 mg/kg/injection, schedule: Q01DX009 (ip), vehicle: saline sonified) is 102 % of control; the T/C under setting [4] is 102 % of control; the T/C under setting [1] was 105 % of control; the T/C (endpoint: mean survival time, dose: 200.0 mg/kg/injection, schedule: Q01DX009 (ip), vehicle: saline sonified) was 105 % of control; the T/C under setting [2] was 104 % of control.
With `CC1CC(=O)OC2CC(C)(C)CC(=O)C12` (configuration not stated), the T/C was 104 % of control (endpoint: mean survival time, dose: 100.0 mg/kg/injection, schedule: Q01DX009 (ip), vehicle: saline); 98 % of control (endpoint: mean survival time, dose: 100.0 mg/kg/injection, schedule: Q04DX003 (ip), vehicle: saline sonified); 106 % of control (endpoint: mean survival time, dose: 200.0 mg/kg/injection, schedule: Q01DX009 (ip), vehicle: saline); 95 % of control (endpoint: mean survival time, dose: 200.0 mg/kg/injection, schedule: Q04DX003 (ip), vehicle: saline sonified); 104 % of control (endpoint: mean survival time, dose: 400.0 mg/kg/injection, schedule: Q01DX009 (ip), vehicle: saline); 95 % of control (endpoint: mean survival time, dose: 400.0 mg/kg/injection, schedule: Q04DX003 (ip), vehicle: saline sonified).
Regarding `CC(=O)O.CC(=O)O.O.[Fe]`, the T/C runs as follows: (endpoint: mean survival time, dose: 100.0 mg/kg/injection, schedule: Q01DX001 (ip), vehicle: saline) 98 % of control; (endpoint: mean survival time, dose: 200.0 mg/kg/injection, schedule: Q01DX001 (ip), vehicle: saline) 96 % of control; (endpoint: mean survival time, dose: 400.0 mg/kg/injection, schedule: Q01DX001 (ip), vehicle: saline) 100 % of control.
As for `CCc1cccc(OCC(C)=O)c1`, the T/C reads like this: (endpoint: mean survival time, dose: 75.0 mg/kg/injection, schedule: Q01DX001 (ip), vehicle: saline with Tween-80) 97 % of control; (endpoint: mean survival time, dose: 150.0 mg/kg/injection, schedule: Q01DX001 (ip), vehicle: saline with Tween-80) 101 % of control; (endpoint: mean survival time, dose: 300.0 mg/kg/injection, schedule: Q01DX001 (ip), vehicle: saline with Tween-80) 100 % of control.
For `CCCCCCCCCCCCCCCC(=O)N(CCCN(C)C)CCCN(CCCN(C)C)C(=O)CCCCCCCCCCCCCCC`, the T/C reads like this: (endpoint: mean survival time, dose: 1.56 mg/kg/injection, schedule: Q01DX009 (ip), vehicle: water) 101 % of control; (endpoint: mean survival time, dose: 3.13 mg/kg/injection, schedule: Q01DX009 (ip), vehicle: water) 98 % of control; (endpoint: mean survival time, dose: 6.25 mg/kg/injection, schedule: Q01DX009 (ip), vehicle: water) 95 % of control; (endpoint: mean survival time, dose: 12.5 mg/kg/injection, schedule: Q01DX009 (ip), vehicle: water) 94 % of control and 95 % of control; (endpoint: mean survival time, dose: 25.0 mg/kg/injection, schedule: Q01DX009 (ip), vehicle: water) 95 % of control.
Take `Cc1ccc(S(=O)(=O)/N=S(\C)c2ccc(Cl)cc2)cc1` (configuration not stated): the T/C is 97 % of control under setting [1], 108 % of control under setting [2] and 90 % of control under setting [3].
`CCCCCCCCC/C(C)=N\NC(=O)c1ccccc1`: the T/C under setting [4] was 100 % of control and the T/C (endpoint: mean survival time, dose: 400.0 mg/kg/injection, schedule: Q01DX009 (ip), vehicle: saline sonified) was 108 % of control.
Regarding `COc1cc(C(=O)C(=O)c2cc(OC)c(OC)c(OC)c2)cc(OC)c1OC`, the T/C is 101 % of control (endpoint: mean survival time, dose: 100.0 mg/kg/injection, schedule: Q01DX009 (ip), vehicle: Klucel (hydroxypropylcellulose) (HPC)); 106 % of control (endpoint: mean survival time, dose: 200.0 mg/kg/injection, schedule: Q01DX009 (ip), vehicle: Klucel (hydroxypropylcellulose) (HPC)); 113 % of control (endpoint: mean survival time, dose: 400.0 mg/kg/injection, schedule: Q01DX009 (ip), vehicle: Klucel (hydroxypropylcellulose) (HPC)).
For `CCCCOC(=O)COc1c(Cl)ccc(Cl)c1Cl`, the T/C by setting is: (endpoint: mean survival time, dose: 100.0 mg/kg/injection, schedule: Q04DX002 (ip), vehicle: saline with Tween-80) 102 % of control; (endpoint: mean survival time, dose: 200.0 mg/kg/injection, schedule: Q04DX002 (ip), vehicle: saline with Tween-80) 95 % of control.
